Several values for one entry are separate records, joined by “and”; a condition that tells them apart may be missing. Equal values may be shown once. Marks after values point to notes of the source that are not given here.
Columns and labels:
[1] = Ferric reducing/antioxidant power (FRAP) assay
Description: The ability of antioxidants to reduce ferric ion to the ferrous ion, (FRAP assay) is another indicator frequently used for assessing antioxidant power. Ferrous ion (Fe^2+) produced in this assay forms a blue complex (Fe^2+/TPTZ) absorbing at 593 nm. Briefly, the reagent was prepared by mixing acetate buffer (300 mM, pH 3.6), a solution of 10 mM TPTZ in 40 mM HCl, and 20 mM FeCl3 × 6H2O at 10:1:1 (v/v/v). Firstly 300 μL of freshly prepared FRAP reagent was heated to 37 °C and an absorbance (A0) of a blank reagent was read at 593 nm in a Biotek EL808 microplate reader (Winooski, VT, USA). Then 10 μL of 0.01% 5,8-DHC solution in water and 30 μL H2O were added and the absorbance (A) was recorded every 1 min during the whole monitoring period which lasted up to 30 min. The change in the absorbance (ΔA593 nm) between the final reading and A0 was calculated for each sample and related to the ΔA593 nm of a Fe^2+ reference solution which was measured simultaneously. The value is expressed in Trolox equivalents required to obtain similar reducing power.

[2] = test system: Wistar rat bone marrow cells; experiment: Micronucleus in vivo assay in rat bone marrow
Source text: Male albino Wistar rats aged 8–10 weeks and having body weight of 200–220 g, were used in the present study. The animals were supplied by the Animal Facility of the Department of Immunology, State Research Institute Center for Innovative Medicine. Ethical approval was given by the Committee of the Lithuanian Animal Care and Use. Prior to the start of the study, the animals were acclimatized for 7 days. They were housed under conditions of constant temperature, humidity and a light/dark cycle of 12 h/12 h with free access to standard commercial pellet diet and drinking water. The animals were randomly distributed into 11 experimental groups of six rats each.
We used a mixture of dimethylsulfoxide (DMSO) and sunflower oil (1:2) as the vehicle for 5,8-DHC (5,8-DHC was dissolved in DMSO and adjusted to the desired dose with sunflower oil immediately before administration). For the acute treatment, the animals received single intraperitoneal (i.p.) injections of 10 or 20 mg/kg of 5,8-DHC in 1 mL volume per 100 g body weight (b.w.). The negative control group comprised animals, given a single i.p. injection of vehicle (1 mL/100 g b.w.) and the positive control group, given cyclophosphamide (CP, 30 mg/kg adjusted in 0.5 mL/100 g b.w. in sterile physiological saline). A commercial form of cyclophosphamide was used (‘Endoxan’, ASTA Medica AG, Frankfurt, Germany). Blank controls comprised untreated animals. For the repeated treatment, 5,8-DHC (10 or 20 mg/kg) or vehicle was administered via gavage (1 mL/100 g b.w.) once a day for 3 consecutive days. Animals were sacrificed 24 h or 48 h after the last dose administration. Colchicine was applied i.p. at a dose of 2 mg/kg b.w. in 1 mL volume 90 min before sacrifice. Both femurs were dissected from each animal and used to obtain bone marrow preparations for the analysis of chromosome aberrations and micronucleus.
The bone marrow MN assay was conducted according to the standard procedure. Ends of the femura were cut off and the bone marrow was washed out with 2 mL of heat-inactivated foetal calf serum (Biochrom AG, Berlin, Germany), mixed thoroughly to obtain a fine suspension and centrifuged for 5 min at 150 × g. The supernatant was discarded and the cell pellet was carefully re-suspended. At least two smears per animal were prepared and allowed to air dry prior to fixation with methanol. The slides were stained in May-Grünwald solution followed by Giemsa (both Merck), coded and scored blind by the same scorer under magnification of 1000× (Jenaval, Zeiss, Jena, Germany). Micronucleated polychromatic erythrocyte (MNPCE) frequencies were based on the observation of 2,000 immature polychromatic erythrocytes (PCEs). Bone marrow toxicity was monitored by a decrease of PCE to total erythrocytes (e.g., PCEs+NCEs, normochromatic erythrocytes). At least 1,000 bone marrow erythrocytes per animal were analysed.

[3] = Rapeseed oil oxidation in Oxipress apparatus; details: for protection factor of rapeseed oil: 120 °C, oxygen 5 bars
Description: The samples were prepared by mixing rapeseed oil with 0.025, 0.05 and 0.1% of DHC. Five g of oil were placed in a reactor tube and thermostated at 120 °C under oxygen atmosphere (5 bars) in Oxipress apparatus (Mikrolab, Aarhus). Pressure changes which occur due to the absorption of oxygen consumed for oil oxidation were recorded. The protection factor (PF) values of rapeseed oil in case of using 5,8-DHC were calculated by the following formula: PF = IPX/IPK(3) where IPX is induction period of sample with additive (h); IPK is induction period of sample without additive (h).

[4] = repeated gavage 3 × 10 mg/kg b.w., sacrifice 48 h
[5] = repeated gavage 3 × 20 mg/kg b.w., sacrifice 48 h
[6] = single i.p. 10 mg/kg b.w., sacrifice 24 h
[7] = single i.p. 10 mg/kg b.w., sacrifice 48 h

With `O=c1ccc2c(O)ccc(O)c2o1` [5,8-DHC, 5,8-Dihydroxycoumarin] as the molecule, how does the FRAP value [1] read?
Its FRAP value is 577 ± 0.0 mg/g in Trolox equivalents.

What about the “cytotoxicity (decline of the proportion of PCEs to total erythrocytes)” value ([2]; rat, in vivo) of the same molecule?
The value was “no signs of 5,8-DHC cytotoxicity”.

And the “effect on the frequency of MNPCEs” value ([2]; repeated gavage)?
The value was “no obvious effect”.

And the “MNPCE (%± S.E.M.)” value [2, 4]?
Its value is 0.24 ± 0.05%.

What about the “PCE (%± S.E.M.)” value [2, 4] of the same molecule?
The value was 31.7 ± 4.0%.

And the “MNPCE (%± S.E.M.)” value [2, 5]?
Its value is 0.23 ± 0.05%.

What about the “PCE (%± S.E.M.)” value [2, 5] of the same molecule?
The value was 45.5 ± 3.5%.

What about the “MNPCE (%± S.E.M.)” value [2, 6] of the same molecule?
The value was 0.56 ± 0.08 ^a %.

What about the “PCE (%± S.E.M.)” value [2, 6] of the same molecule?
The value was 32.1 ± 1.9%.

And the “MNPCE (%± S.E.M.)” value [2, 7]?
Its value is 0.30 ± 0.06%.

What about the “PCE (%± S.E.M.)” value [2, 7] of the same molecule?
Its value is 31.8 ± 5.6%.

And the “PCE (%± S.E.M.)” value ([2]; single i.p. 20 mg/kg b.w., sacrifice 24 h)?
Its value is 36.6 ± 2.8%.

What about the “MNPCE (%± S.E.M.)” value ([2]; single i.p. 20 mg/kg b.w., sacrifice 24 h, 20 mg/kg) of the same molecule?
The value was 0.63% and 0.63 ± 0.04 ^a %.

And the “PCE (%± S.E.M.)” value ([2]; single i.p. 20 mg/kg b.w., sacrifice 48 h)?
The value was 26.6 ± 5.0%.

And the “MNPCE (%± S.E.M.)” value ([2]; single i.p. 20 mg/kg b.w., sacrifice 48 h, 20 mg/kg)?
Its value is 0.59% and 0.59 ± 0.14^a %.

What about the “rapeseed oil autooxidation induction period (IP)” value ([3]; 0.025 % 5,8-DHC) of the same molecule?
The value was 3.81 h.

And the “protection factor of rapeseed oil” value ([3]; 0.025% 5,8-DHC)?
The value was 1.69.

And the “rapeseed oil autooxidation induction period (IP)” value ([3]; 0.050 % 5,8-DHC)?
Its value is 5.46 h.

And the “protection factor of rapeseed oil” value ([3]; 0.05% 5,8-DHC)?
The value was 2.43.

And the “rapeseed oil autooxidation induction period (IP)” value ([3]; 0.100 % 5,8-DHC)?
Its value is 8.46 h.

— article PMC6269819, “Evaluation of the Biological Activity of Naturally Occurring 5,8-Dihydroxycoumarin” (Molecules, 2013)
